The text below walks through data of patent publication US20050009124A1, “Assays for detection of phosphoinositide kinase and phosphatase activity” (Echelon Biosciences Incorporated, priority 2001, published 2005).

In general, Km refers to the substrate concentration at which the rate is half of its maximum.

The target in assay [1] is recombinant PI 3-Kinaseα (Homo sapiens, UniProt P42336). Briefly: Competitive FP assay for PI 3-Kinase activity. It counts as biochemical. Particulars: substrate conversion at constant enzyme levels.
Sequence of recombinant PI 3-Kinaseα (P42336 whole entry): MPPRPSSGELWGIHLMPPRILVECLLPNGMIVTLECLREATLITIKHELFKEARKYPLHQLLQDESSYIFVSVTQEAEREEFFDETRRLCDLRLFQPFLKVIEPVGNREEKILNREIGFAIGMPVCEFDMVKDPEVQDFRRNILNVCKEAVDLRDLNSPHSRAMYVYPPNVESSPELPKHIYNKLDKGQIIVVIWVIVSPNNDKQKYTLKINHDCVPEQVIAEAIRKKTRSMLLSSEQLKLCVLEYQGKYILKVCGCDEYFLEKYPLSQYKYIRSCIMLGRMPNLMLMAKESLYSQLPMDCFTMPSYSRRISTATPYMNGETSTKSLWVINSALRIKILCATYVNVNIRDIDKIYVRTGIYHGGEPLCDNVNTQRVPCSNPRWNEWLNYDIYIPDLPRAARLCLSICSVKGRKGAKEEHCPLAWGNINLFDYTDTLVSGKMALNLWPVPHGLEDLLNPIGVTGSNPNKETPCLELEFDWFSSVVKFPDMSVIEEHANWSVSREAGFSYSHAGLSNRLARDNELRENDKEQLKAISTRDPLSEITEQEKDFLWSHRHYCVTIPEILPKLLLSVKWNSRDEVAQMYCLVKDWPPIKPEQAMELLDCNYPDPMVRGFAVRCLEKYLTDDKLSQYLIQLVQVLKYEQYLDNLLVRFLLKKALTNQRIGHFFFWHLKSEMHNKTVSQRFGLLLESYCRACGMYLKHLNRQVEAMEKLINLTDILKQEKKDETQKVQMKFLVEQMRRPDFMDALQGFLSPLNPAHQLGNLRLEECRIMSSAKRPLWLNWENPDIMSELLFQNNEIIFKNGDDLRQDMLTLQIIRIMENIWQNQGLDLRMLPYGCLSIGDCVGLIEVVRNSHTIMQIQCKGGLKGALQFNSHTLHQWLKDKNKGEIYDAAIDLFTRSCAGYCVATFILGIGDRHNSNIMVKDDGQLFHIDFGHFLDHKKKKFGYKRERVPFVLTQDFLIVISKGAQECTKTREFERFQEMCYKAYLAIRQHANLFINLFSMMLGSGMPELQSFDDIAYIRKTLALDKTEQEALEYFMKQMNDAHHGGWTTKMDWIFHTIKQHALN
Sequence of recombinant PI 3-Kinaseα (P27986 whole entry partner): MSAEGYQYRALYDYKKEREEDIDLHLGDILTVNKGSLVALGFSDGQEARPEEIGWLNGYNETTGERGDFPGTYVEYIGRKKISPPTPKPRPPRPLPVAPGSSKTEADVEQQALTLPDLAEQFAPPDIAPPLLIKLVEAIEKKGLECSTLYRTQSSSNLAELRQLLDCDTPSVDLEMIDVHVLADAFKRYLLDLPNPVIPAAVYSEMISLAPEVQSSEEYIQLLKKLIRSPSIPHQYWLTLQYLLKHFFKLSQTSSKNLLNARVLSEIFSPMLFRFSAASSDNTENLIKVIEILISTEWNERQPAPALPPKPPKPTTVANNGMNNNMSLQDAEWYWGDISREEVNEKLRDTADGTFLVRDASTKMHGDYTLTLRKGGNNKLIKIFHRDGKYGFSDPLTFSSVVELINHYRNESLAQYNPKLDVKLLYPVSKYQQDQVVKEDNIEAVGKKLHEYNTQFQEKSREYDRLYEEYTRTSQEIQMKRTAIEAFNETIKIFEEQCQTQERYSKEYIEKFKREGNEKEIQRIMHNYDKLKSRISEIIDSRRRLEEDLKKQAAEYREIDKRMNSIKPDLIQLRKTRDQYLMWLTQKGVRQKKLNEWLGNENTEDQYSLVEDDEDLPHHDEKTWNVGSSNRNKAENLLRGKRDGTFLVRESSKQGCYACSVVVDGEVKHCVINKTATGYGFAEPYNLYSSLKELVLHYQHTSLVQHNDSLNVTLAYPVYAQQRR
Source text: The FP assays developed for the detection of PI 3-Kinase and SHIP2 activity were designed as competitive assays in which the enzyme product would compete with a fluorescently labeled synthetic phosphoinositide or inositol phosphate tracer for binding to a specific phosphoinositide binding protein. As the products of the enzymatic reaction increase, the soluble phosphoinositide products compete for the interaction of the binding protein and the fluorescent tracer, leading to a decrease in mP values as the amount of depolarized free tracer increases. Thus, changes in polarization should be inversely proportional to the degree of enzyme activity.
These assays involve four steps. First, the enzyme and substrate phosphoinositide are combined in an appropriate reaction buffer and the reaction is allowed to proceed. […] Finally, polarization values are measured to determine the extent of enzyme activity in the reaction.
The ability of FP competitive assays to detect the production of phosphoinositide products of PI 3-Kinaseα activity was tested using recombinant PI 3-Kinaseα. […] The production of PI(3,4,5)P3 was detected as a decrease in mP values as enzyme products compete with I(1,3,4,5)P4-BODIPY®-TMR for interaction with the binding protein.
The target of assay [2] is T1, GST-GRP1-PH (Homo sapiens, UniProt O43739).
T1 construct: The PH domain of GRP1 (general receptor for phosphoinositides) was used as a detector for PI(3,4,5)P3
T1 sequence (O43739 264-381 limits assumed): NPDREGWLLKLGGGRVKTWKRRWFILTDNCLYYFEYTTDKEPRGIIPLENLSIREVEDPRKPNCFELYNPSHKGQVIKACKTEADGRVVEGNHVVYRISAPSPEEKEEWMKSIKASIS
Briefly: Competitive FP assay, displacement of fluorescent tracer from GST-GRP1-PH. It counts as binding. Particulars: amounts over 100-fold greater than PI(3,4,5)P3. On the procedure:
In order to use these reagents in a competitive FP assay, unlabeled phosphoinositide products of an enzymatic reaction must be able to successfully compete with the labeled tracer for interaction with the binding proteins. In addition, the level of cross-reactivity of binding proteins with the phosphoinositides used as enzyme substrates should be minimal. To examine the suitability of these phosphoinositide binding proteins for this application, competition assays were performed using optimal amounts of lipid binding proteins and fluorescent tracers, mixed with increasing amounts of diC8-phosphoinositide competitors.
The sensitivity of this approach for detecting conversion of PI(4,5)P2 to PI(3,4,5)P3 was evaluated using GST-GRP1-PH protein and FAM and BODIPY®-TMR labeled tracers. Competition assays in which both diC8-PI(3,4,5)P3 and diC8-PI(4,5)P2 were added at increasing concentrations were performed.

`CCCCCCCC(=O)OC[C@H](COP(=O)(O)O[C@@H]1[C@H](O)[C@H](O)[C@@H](OP(=O)(O)O)[C@H](OP(=O)(O)O)[C@H]1O)OC(=O)CCCCCCC` [diC8-PI(4,5)P2]: the Km in assay [1] was around 3 µM. Also, the “effect on interaction of binding protein with fluorescent tracers” value in assay [2] is “minimal effect”.
